Reference: patent US20070167490A1, “Imino ether derivative compounds and drugs containing the compounds as the active ingredient” (Ono Pharmaceutical Co Ltd, priority 2003, published 2007)

SMILES	melting point
CC/C(=N\OCCOc1cccc(CC(=O)O)c1)c1ccc(-c2cccs2)cc1 [14(30), (3-{2-[({(1E)-1-[4-(2-thienyl)phenyl]propylidene}amino)oxy]ethoxy}phenyl)acetic acid]	117 to 120 °C
CC/C(=N\OCCOc1cccc(CC(=O)O)c1)c1ccc(-n2cccn2)cc1 [14(35), (3-{2-[({(1E)-1-[4-(1H-pyrazol-1-yl)phenyl]propylidene}amino)oxy]ethoxy}phenyl)acetic acid]	143.5 to 147 °C
